According to US6342522B1, “Microbiocidal compositions” (priority 1998, dated 2002):
Several values for one entry are separate records, joined by “and”; a condition that tells them apart may be missing. Equal values may be shown once.

What was measured:
Assay in all cases: MIC, two-fold serial dilutions in Malt Agar, synergism by Kull method
Format in all cases: cell-based
Alternaria sp = test system: Alternaria sp
Protocol: (§1) Each test tube was inoculated to make about 5×10^5 fungi per mil. The lowest concentrations of each compound or mixtures to inhibit visible growth (turbidity) at 30° C. for the fungi for 7 days were taken as the minimum inhibitory concentration (MIC). The MIC were taken as end points of activity. End points for the mixtures of compound A (Guanadine component) and Compound B (second Component microbiocide) were then compared with the end points for the guanadine component A alone and compound B alone. Synergism was determined by a commonly used and accepted method described by Kull, F. C.; Eisman, P. C.; Sylwestrowicz, H. D. and Mayer, R. L. in Applied Microbiology 9:538-541 (1961) using the ratio determined by Qa/QA+Qb/QB==Synergy Index (SI) wherein:
(§2) QA=concentration of compound A in parts per million (ppm), acting alone, which produced an end point.
(§3) Qa=concentration of compound A in ppm, in the mixture which produced an end point.
(§4) QB=concentration of compound B in ppm, acting alone which produced an end point.
(§5) Qb=concentration of compound B in ppm, in the mixture which produced an end point.
(§6) When the sum of Qa/QA and Qb/QB is greater than one, antagonism is indicated.
(§7) The MIC values of each compound tested alone (QA or QB) are end-point activities except where the value is expressed as […]. In these cases, the end-point activity was not seen at the highest tested concentration. For purpose of calculation of the synergy index and for operational definition of MIC, the reported value could be an underestimate of the true MIC; thus the true synergy index could be even lower.

Penicillium sp. = test system: Penicillium sp.
Protocol: as §1, §2, §3, §4, §5, §6, §7

Tyromyces palustris = details: 30° C., 7 days
Protocol: as §1, §2, §3, §4, §5, §6, §7

Coriolus versicolor = test system: Coriolus versicolor
Protocol: as §1, §2, §3, §4, §5, §6, §7

Ophiostoma sp. = test system: Ophiostoma sp.
Protocol: as §1, §2, §3, §4, §5, §6, §7

Diplodia sp. = details: 30° C., 7 days
Protocol: as §1, §2, §3, §4, §5, §6, §7

Compound: CCCN(CCOc1c(Cl)cc(Cl)cc1Cl)C(=O)n1ccnc1 [Prochloraz, N-propyl-N-(2-(2,4,6-trichlorophenoxy)ethyl)-imidazole-1-carboximide]
- MIC (Alternaria sp; Alternaria, 168 h, read-out: QB, end-point activity (MIC) of compound B acting alone): 4 µg/mL
- MIC (Penicillium sp.; Penicillium, 168 h, read-out: QB, end-point activity (MIC) of compound B acting alone): 32 µg/mL
- MIC (Tyromyces palustris; 168 h, read-out: QB, end-point activity (MIC) of compound B acting alone, T palustri): 64 µg/mL
- QB, end-point activity (MIC) of compound B acting alone (Tyromyces palustris; T palustri): 128 ppm
- MIC (Coriolus versicolor; Trametes versicolor, 168 h, read-out: QB, end-point activity (MIC) of compound B acting alone): 4 µg/mL
- MIC (Ophiostoma sp.; 168 h, read-out: QB, end-point activity (MIC) of compound B acting alone): 2 µg/mL

Compound: 3-iodo-2-propynylbutyl carbamate [Iodocarb]
- QB, end-point activity (MIC) of compound B acting alone (Penicillium sp.; Penicillium sp, 30° C., 7 days): 4 ppm
- QB, end-point activity (MIC) of compound B acting alone (Coriolus versicolor; c versicolor, 30° C., 7 days): 16 ppm

Compound: N=C(N)NCCCCCCCCNCCCCCCCCNC(=N)N [Guazatine, 1,1-iminodi(octamethylene)diguanidine]
- QA, end-point activity (MIC) of compound A acting alone (Alternaria sp; Alternaria sp, 30° C., 7 days): 32 ppm
- QA, end-point activity (MIC) of compound A acting alone (Penicillium sp.; Penicillium sp, 30° C., 7 days): 128 ppm
- QA, end-point activity (MIC) of compound A acting alone (Tyromyces palustris; T palustri): 128 ppm
- QA, end-point activity (MIC) of compound A acting alone (Coriolus versicolor; c versicolor, 30° C., 7 days): 32 ppm and 64 ppm
- QA, end-point activity (MIC) of compound A acting alone (Diplodia sp.): 64 ppm
- QA, end-point activity (MIC) of compound A acting alone (Ophiostoma sp.; Ophiosroma sp, 30° C., 7 days): 1 ppm
